The IC50 is the point on the concentration scale where inhibition reaches its midpoint.

Consider 16 compounds from patent US20230364070A1, “PYRROLO[3,2-C]PYRIDIN-4-ONE DERIVATIVES USEFUL IN THE TREATMENT OF CANCER” (Scorpion Therapeutics, Inc., priority 2020, published 2023).

What all share (assay type): cell-based
In one assay the target is T1, Ba/F3 cells with EGFR WT (Homo sapiens, UniProt P00533).
T1 construct: expressed in transfected cells; host or cells: Ba/F3 (murine pro-B cells), retroviral transduction, puromycin selection, maintained with EGF
T1 sequence (P00533 25-1210): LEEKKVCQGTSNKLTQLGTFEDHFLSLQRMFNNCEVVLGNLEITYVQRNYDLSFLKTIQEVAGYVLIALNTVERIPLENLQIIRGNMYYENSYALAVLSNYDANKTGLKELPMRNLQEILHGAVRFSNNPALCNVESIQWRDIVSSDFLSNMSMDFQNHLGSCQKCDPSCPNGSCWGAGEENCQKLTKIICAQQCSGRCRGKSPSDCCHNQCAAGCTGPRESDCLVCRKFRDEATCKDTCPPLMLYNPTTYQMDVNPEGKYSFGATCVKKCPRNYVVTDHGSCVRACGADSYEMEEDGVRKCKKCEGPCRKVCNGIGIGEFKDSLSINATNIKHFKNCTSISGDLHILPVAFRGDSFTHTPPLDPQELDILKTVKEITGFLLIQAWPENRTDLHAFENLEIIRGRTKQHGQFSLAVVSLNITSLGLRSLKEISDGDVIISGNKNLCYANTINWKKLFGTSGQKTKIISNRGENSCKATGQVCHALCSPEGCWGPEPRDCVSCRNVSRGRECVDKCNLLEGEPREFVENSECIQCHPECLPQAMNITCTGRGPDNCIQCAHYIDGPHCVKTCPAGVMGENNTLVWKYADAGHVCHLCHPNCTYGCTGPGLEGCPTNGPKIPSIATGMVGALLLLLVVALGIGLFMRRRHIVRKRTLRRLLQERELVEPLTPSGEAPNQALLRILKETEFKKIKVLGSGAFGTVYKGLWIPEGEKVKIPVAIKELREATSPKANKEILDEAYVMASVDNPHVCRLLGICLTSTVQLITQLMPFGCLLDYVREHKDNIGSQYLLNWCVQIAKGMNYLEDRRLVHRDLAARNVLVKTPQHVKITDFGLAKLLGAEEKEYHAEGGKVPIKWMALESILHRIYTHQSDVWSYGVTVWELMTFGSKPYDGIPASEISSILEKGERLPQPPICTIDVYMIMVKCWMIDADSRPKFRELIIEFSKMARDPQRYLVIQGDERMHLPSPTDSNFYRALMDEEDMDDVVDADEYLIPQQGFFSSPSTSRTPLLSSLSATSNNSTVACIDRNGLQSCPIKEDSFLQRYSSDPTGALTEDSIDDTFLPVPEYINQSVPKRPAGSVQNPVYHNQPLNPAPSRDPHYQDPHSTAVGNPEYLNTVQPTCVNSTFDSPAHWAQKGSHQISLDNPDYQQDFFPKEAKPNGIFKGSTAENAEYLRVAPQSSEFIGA
Kind of assay: EGFR activity: Ba/F3 cell viability (CellTiter-Glo, 72 h), EGFR WT. Particulars: read-out: BaF3 WT IC50. Background: ATP-based viability assays read luminescence as a measure of living cells.

The next assay has as its target T2, pEGFR in CUTO14 cells (Homo sapiens, UniProt P00533, DUP767-769).
T2 construct: endogenous in cells; host or cells: CUTO14 cells
Kind of assay: Inhibitor activity on EGFR phosphorylation (pEGFR AlphaLISA, 2 h), CUTO14 cells. How it is done: CUTO14 cells were obtained from Dr. Robert C. Doebele at the University of Colorado.
Shake 350 rpm for 1 hr in the dark • 3.4 Prepare donor mix under low light conditions prior to use. Dispense 5 μL of donor mix to all the wells. Mix well on the shaker, seal and wrap in aluminum foil and incubate 1.5 hrs at room temperature in the dark • 3.5 Transfer 18.5 μL mixture to OptiPlate 384, and read using an Envision.

Assay [1] deals with T3, Ba/F3 cells with EGFR exon 20 NPG Ins D770_N771 (Homo sapiens, UniProt P00533, INS770NPG).
T3 construct: expressed in transfected cells; host or cells: Ba/F3 (murine pro-B cells), retroviral transduction, puromycin selection, IL3-independent pool
T3 sequence (P00533 with tags, fused parts or gaps INS770NPG): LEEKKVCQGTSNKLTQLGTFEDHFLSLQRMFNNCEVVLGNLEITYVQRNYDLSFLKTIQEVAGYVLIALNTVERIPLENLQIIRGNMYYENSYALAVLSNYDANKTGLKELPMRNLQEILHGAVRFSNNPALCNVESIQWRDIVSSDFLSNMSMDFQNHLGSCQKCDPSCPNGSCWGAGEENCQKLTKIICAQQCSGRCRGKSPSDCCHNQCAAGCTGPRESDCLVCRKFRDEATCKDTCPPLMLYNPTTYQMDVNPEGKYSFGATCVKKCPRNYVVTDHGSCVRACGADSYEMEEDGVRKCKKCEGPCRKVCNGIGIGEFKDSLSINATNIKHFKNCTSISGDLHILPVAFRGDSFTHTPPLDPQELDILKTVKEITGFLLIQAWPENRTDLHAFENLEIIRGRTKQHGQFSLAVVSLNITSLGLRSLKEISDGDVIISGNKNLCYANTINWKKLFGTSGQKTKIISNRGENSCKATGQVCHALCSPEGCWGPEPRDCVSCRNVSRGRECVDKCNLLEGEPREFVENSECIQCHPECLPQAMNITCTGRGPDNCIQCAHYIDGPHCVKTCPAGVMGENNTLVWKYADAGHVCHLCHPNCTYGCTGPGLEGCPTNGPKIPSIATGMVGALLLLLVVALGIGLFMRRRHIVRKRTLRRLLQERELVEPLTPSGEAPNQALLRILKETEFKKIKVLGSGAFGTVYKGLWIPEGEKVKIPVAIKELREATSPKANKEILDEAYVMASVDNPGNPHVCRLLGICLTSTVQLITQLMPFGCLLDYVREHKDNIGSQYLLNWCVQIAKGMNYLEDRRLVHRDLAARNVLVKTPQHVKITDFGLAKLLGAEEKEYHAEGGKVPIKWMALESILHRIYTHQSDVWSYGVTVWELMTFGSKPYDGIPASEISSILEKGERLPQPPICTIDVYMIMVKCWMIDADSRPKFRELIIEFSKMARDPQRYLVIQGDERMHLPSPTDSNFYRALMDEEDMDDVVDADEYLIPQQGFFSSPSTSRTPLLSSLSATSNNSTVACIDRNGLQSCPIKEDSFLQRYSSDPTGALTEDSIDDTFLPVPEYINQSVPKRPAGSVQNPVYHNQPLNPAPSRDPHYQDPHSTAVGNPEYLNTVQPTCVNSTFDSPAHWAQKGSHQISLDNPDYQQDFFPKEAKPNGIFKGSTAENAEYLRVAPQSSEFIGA
Description: EGFR activity: Ba/F3 cell viability (CellTiter-Glo, 72 h), EGFR exon 20 NPG insertion. Particulars: EGFR exon 20 NPG Ins D770_N771, cell viability, read-out: BaF3 NPG IC50.

Assay [2] addresses T4, Ba/F3 cells with EGFR exon 20 ASV Ins V769_D770 (Homo sapiens, UniProt P00533, INS769ASV).
T4 construct: expressed in transfected cells; host or cells: Ba/F3 (murine pro-B cells), retroviral transduction, puromycin selection, IL3-independent pool
Kind of assay: EGFR activity: Ba/F3 cell viability (CellTiter-Glo, 72 h), EGFR exon 20 ASV insertion. The note with it: EGFR exon 20 ASV Ins V769_D770, cell viability, read-out: BaF3 ASV IC50.

Where only a bound is given, the exact number is not on record here.

T4 sequence (P00533 with tags, fused parts or gaps INS769ASV): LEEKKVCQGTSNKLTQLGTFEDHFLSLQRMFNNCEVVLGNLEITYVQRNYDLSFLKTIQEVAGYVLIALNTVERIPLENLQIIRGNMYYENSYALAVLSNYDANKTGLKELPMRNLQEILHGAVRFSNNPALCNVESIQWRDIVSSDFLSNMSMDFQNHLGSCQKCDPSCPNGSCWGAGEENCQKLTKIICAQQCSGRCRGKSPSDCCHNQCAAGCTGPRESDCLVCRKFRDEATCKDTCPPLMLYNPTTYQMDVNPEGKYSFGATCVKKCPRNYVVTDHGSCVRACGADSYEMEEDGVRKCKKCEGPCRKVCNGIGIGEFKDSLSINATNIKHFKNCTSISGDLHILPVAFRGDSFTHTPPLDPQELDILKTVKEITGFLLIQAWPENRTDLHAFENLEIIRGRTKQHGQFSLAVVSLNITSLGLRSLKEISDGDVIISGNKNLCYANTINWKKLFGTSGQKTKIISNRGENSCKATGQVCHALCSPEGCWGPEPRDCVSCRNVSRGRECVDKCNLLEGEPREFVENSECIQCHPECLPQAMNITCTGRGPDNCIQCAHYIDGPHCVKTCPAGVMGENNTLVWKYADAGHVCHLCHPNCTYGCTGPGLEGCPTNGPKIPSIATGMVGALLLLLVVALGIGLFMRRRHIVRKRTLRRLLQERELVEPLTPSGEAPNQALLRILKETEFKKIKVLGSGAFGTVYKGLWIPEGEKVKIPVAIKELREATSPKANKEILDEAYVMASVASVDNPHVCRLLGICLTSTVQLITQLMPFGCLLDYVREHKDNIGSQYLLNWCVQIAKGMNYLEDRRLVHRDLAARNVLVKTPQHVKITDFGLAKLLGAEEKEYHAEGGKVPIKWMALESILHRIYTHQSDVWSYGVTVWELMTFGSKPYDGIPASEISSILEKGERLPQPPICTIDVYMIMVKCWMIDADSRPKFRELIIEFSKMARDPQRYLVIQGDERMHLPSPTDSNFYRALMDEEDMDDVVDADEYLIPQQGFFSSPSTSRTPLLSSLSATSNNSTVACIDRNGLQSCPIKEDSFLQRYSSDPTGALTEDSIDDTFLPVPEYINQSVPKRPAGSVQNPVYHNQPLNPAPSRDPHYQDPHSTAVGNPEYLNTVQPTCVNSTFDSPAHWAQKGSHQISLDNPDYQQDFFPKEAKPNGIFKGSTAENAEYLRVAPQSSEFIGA
T2 sequence (P00533 with tags, fused parts or gaps DUP767-769): as the sequence (P00533 with tags, fused parts or gaps INS769ASV) above

As to `COc1c(F)cccc1Nc1c(-c2ccncc2C#C[C@@]2(NC(=O)/C=C/CN(C)C)CCOC2)[nH]c2c1C(=O)NCC2` [compound 419], the IC50 was more than 1000 nM at Ba/F3 cells with EGFR WT, 100 to 1000 nM at pEGFR in CUTO14 cells, 100 to 1000 nM in assay [1] and 100 to 1000 nM in assay [2].

In the case of `CC#CC(=O)N1CC[C@]1(C)COc1cnccc1-c1[nH]c2c(c1Nc1cccc(Cl)c1OC)C(=O)NCC2` [compound 308], the IC50 at Ba/F3 cells with EGFR WT was 100 to 1000 nM; against pEGFR in CUTO14 cells it was less than 100 nM; in assay [1] it was less than 100 nM; in assay [2], less than 100 nM.

For `C=CC(=O)N[C@]1(C#Cc2cnccc2-c2[nH]c3c(c2Nc2cccc(F)c2C)C(=O)NCC3)CCOC1` [compound 387], the IC50 on Ba/F3 cells with EGFR WT is 100 to 1000 nM; at pEGFR in CUTO14 cells, less than 100 nM; in assay [1], less than 100 nM; in assay [2] it was less than 100 nM.

For `C=CC(=O)N1[C@H](COc2cnccc2-c2[nH]c3c(c2Nc2cccc(Cl)c2OC)C(=O)NCC3)C[C@@H]1C` [compound 273], the IC50 (on Ba/F3 cells with EGFR WT; at pEGFR in CUTO14 cells; in assay [1]; in assay [2]) was less than 100 nM throughout.

For `COc1c(F)cccc1Nc1c(-c2ccncc2C#CC(C)(C)NC(=O)/C=C/CN2CCN(C)CC2)[nH]c2c1C(=O)NCC2` [compound 464], the IC50 is more than 1000 nM on Ba/F3 cells with EGFR WT, 100 to 1000 nM against pEGFR in CUTO14 cells, more than 1000 nM in assay [1] and more than 1000 nM in assay [2].

`COc1c(F)cccc1Nc1c(-c2ccncc2C#CC2(NC(=O)/C=C/CN(C)C)COC2)[nH]c2c1C(=O)NCC2` [compound 417]: the IC50 was more than 1000 nM on Ba/F3 cells with EGFR WT, 100 to 1000 nM at pEGFR in CUTO14 cells, 100 to 1000 nM in assay [1] and 100 to 1000 nM in assay [2].

As to `C=CC(=O)NC1(C#Cc2cnccc2-c2[nH]c3c(c2Nc2cccc(F)c2OC)C(=O)NCC3)CN(C)C1` [compound 336], the half-inhibitory concentration (IC50) on Ba/F3 cells with EGFR WT was more than 1000 nM; at pEGFR in CUTO14 cells it was 100 to 1000 nM; in assay [1], 100 to 1000 nM; in assay [2], 100 to 1000 nM.

Turning to `COc1c(Cl)cccc1Nc1c(-c2ccncc2C#CC23CC(CN2C(=O)/C=C/CN(C)C)C3)[nH]c2c1C(=O)NCC2` [compound 436], the IC50 on Ba/F3 cells with EGFR WT was 100 to 1000 nM; against pEGFR in CUTO14 cells, less than 100 nM; in assay [1], less than 100 nM; in assay [2], less than 100 nM.

Take `COc1c(F)cccc1Nc1c(-c2ccncc2C#CC(C)(C)NC(=O)/C=C/CN2CC(OC)C2)[nH]c2c1C(=O)NCC2` [compound 393]: the IC50 was 100 to 1000 nM at Ba/F3 cells with EGFR WT, less than 100 nM at pEGFR in CUTO14 cells, less than 100 nM in assay [1] and less than 100 nM in assay [2].

Turning to `C=CC(=O)NC1(C#Cc2cnccc2-c2[nH]c3c(c2Nc2cccc(Cl)c2OC)C(=O)NCC3)CCOCC1` [compound 382], the IC50 was 100 to 1000 nM on Ba/F3 cells with EGFR WT, less than 100 nM on pEGFR in CUTO14 cells, less than 100 nM in assay [1] and less than 100 nM in assay [2].

As for `COc1c(F)cccc1Nc1c(-c2ccncc2C#C[C@@]2(C)CCCN2C(=O)/C=C/CN2CC[C@@H](OC)C2)[nH]c2c1C(=O)NCC2` [compound 444], the IC50 on Ba/F3 cells with EGFR WT is 100 to 1000 nM; against pEGFR in CUTO14 cells, less than 100 nM; in assay [1] it was less than 100 nM; in assay [2], less than 100 nM.

For `C=C(F)C(=O)NC(C)(C)C#Cc1cnccc1-c1[nH]c2c(c1Nc1cccc(F)c1OC)C(=O)NCC2` [compound 389], the IC50 is 100 to 1000 nM at Ba/F3 cells with EGFR WT, less than 100 nM at pEGFR in CUTO14 cells, less than 100 nM in assay [1] and less than 100 nM in assay [2].

`C=C(F)C(=O)NC(C)(C)C#Cc1cnccc1-c1[nH]c2c(c1Nc1cccc(Cl)c1OC)C(=O)NCC2` [compound 390]: the IC50 was 100 to 1000 nM on Ba/F3 cells with EGFR WT, less than 100 nM against pEGFR in CUTO14 cells, less than 100 nM in assay [1] and less than 100 nM in assay [2].

Regarding `COc1c(F)cccc1Nc1c(-c2ccncc2C#C[C@@]2(C)CCCN2C(=O)/C=C/CN2CC(OC)C2)[nH]c2c1C(=O)NCC2` [compound 441], the IC50 on Ba/F3 cells with EGFR WT was 100 to 1000 nM; against pEGFR in CUTO14 cells, less than 100 nM; in assay [1], less than 100 nM; in assay [2] it was less than 100 nM.

Turning to `CC#CC(=O)N1CC[C@@H]1C#Cc1cnccc1-c1[nH]c2c(c1Nc1cccc(F)c1OC)C(=O)NCC2` [compound 373], the IC50 (at Ba/F3 cells with EGFR WT; against pEGFR in CUTO14 cells; in assay [1]; in assay [2]) was less than 100 nM each time.

With `C=CC(=O)N[C@@]1(C#Cc2cnccc2-c2[nH]c3c(c2Nc2cccc(F)c2C)C(=O)NCC3)CCOC1` [compound 386], the IC50 at Ba/F3 cells with EGFR WT was 100 to 1000 nM; against pEGFR in CUTO14 cells, less than 100 nM; in assay [1] it was less than 100 nM; in assay [2], less than 100 nM.
